Assay results reported in ChEMBL document CHEMBL1201862, “PubChem BioAssay data set” (2004).
Activity calls are given as the source filed them.

Tests used:
HEK293 = experiment: EBV LMP1 TES2 canonical NF-kB signalling blockers – cell-based, HEK293, luciferase, cherry-pick, dose response (AID 588343); assay type: functional; details: Homo sapiens
[1] = target: T1, Replicative DNA helicase DnaB (Mycobacterium tuberculosis, UniProt P9WMR3); experiment: DnaB intein splicing inhibitors, dose response, biochemical, cell-free fluorescence (AID 449749); assay type: functional
T1 sequence (P9WMR3 whole entry): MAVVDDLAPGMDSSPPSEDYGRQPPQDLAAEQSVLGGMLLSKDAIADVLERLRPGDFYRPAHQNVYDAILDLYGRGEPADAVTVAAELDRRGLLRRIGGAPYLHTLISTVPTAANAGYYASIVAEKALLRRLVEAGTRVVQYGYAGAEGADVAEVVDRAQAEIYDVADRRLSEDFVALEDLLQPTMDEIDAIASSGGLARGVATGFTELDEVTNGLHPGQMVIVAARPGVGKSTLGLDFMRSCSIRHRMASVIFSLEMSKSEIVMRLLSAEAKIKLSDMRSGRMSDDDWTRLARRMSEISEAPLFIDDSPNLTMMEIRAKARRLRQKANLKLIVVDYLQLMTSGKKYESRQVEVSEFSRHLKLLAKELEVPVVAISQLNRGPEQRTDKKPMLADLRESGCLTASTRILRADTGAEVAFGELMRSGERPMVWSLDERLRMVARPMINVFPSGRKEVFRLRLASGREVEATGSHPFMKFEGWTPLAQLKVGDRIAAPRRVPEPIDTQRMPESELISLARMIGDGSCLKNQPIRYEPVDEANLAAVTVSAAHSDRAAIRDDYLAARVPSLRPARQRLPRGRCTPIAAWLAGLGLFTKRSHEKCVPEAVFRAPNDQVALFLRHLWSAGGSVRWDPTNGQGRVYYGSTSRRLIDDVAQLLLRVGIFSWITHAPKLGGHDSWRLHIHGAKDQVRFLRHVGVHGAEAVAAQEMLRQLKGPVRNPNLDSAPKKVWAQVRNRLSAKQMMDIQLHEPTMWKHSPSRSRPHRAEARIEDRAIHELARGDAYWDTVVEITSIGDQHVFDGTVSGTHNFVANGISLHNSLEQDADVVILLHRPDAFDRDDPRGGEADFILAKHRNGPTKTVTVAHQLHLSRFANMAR

Vero = experiment: viability of Vero cells under compound – cytotoxicity control for flavivirus capping enzyme inhibitors (AID 588742); assay type: functional; details: Chlorocebus sabaeus
[2] = target: Latent membrane protein 1 (Human herpesvirus 4 (strain B95-8), UniProt P03230); experiment: LMP1 TES1 pathway selectivity over dsRED control – imaging, HEK293T, dual-color eGFP/dsRED, cherry-picks, selectivity assay for LMP1 NF-kB inhibitor project, dose response (AID 588398); assay type: functional, cell-based
Protein RecA = target: T2, Protein RecA (Mycobacterium tuberculosis, UniProt P9WHJ3); experiment: Fluorescence Cell-Free Homogeneous Dose Retest to Identify Inhibitors of RecA-Intein Splicing Activity. [Related pubchem assays (depositor defined):AID2097, AID2223, AID489010, AID492950]; assay type: functional
T2 sequence (P9WHJ3 whole entry): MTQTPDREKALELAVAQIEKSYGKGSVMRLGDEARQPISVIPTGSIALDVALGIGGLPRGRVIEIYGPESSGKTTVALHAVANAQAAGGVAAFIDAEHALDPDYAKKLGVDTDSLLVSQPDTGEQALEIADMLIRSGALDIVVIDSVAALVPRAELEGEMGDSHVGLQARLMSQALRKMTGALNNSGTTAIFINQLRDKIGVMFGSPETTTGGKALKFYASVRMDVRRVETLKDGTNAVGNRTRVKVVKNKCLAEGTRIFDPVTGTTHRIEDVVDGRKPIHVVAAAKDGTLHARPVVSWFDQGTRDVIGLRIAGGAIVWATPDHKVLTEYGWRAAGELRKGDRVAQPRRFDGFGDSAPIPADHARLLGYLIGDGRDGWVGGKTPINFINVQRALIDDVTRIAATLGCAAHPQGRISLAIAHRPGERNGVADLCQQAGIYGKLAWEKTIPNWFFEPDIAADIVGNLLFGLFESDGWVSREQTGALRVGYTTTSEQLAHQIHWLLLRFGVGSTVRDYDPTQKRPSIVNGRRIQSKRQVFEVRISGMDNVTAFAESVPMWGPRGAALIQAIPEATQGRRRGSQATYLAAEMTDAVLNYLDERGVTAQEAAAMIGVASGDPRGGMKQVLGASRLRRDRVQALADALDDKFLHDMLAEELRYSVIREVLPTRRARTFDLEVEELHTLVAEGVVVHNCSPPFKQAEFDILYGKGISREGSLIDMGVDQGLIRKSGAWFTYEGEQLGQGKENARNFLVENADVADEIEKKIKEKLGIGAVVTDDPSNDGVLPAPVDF

Genome polyprotein = Genome polyprotein (dengue virus type 2, UniProt P29990); experiment: flavivirus cap methylation enzyme inhibition – biochemical, confirmation dose response, primary screen (AID 588689); assay type: functional
[3] = target: T3, Long-chain-fatty-acid--AMP ligase FadD28 (Mycobacterium tuberculosis, UniProt P9WQ59); experiment: Fluorescence polarization aasay to screen for inhibitors that compete for the binding of FadD28 to a bisubstrate Measured in Biochemical System Using Plate Reader - 2147-01_Inhibitor_Dose_CherryPick_Activity.; assay type: functional, Mycobacterium tuberculosis H37Rv
T3 sequence (P9WQ59 whole entry): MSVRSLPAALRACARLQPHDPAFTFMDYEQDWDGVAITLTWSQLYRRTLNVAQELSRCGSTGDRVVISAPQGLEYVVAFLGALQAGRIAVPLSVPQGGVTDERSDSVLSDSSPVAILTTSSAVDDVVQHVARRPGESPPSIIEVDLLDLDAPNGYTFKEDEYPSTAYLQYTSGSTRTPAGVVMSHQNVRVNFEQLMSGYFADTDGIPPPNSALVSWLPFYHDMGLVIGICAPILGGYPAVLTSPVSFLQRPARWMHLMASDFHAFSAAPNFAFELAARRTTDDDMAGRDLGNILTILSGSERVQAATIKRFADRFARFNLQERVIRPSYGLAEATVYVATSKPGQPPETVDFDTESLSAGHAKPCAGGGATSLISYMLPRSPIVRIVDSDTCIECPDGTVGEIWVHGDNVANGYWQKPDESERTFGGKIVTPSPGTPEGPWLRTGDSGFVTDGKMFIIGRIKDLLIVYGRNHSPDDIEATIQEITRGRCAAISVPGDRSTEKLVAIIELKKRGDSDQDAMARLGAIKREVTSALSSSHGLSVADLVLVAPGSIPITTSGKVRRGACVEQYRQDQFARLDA

Beta-galactosidase = Beta-galactosidase (Escherichia coli, UniProt Q8VNN2); experiment: PubChem AID 485352; assay type: functional
[4] = target: T4, Heat shock factor protein 1 (Mus musculus, UniProt P38532); experiment: decrease of HSF1-responsive luciferase luminescence – cell-based, NIH3T3, dose retest, confirmation (AID 2382); assay type: functional;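 also: NIH3T3 fibroblasts with HSF1-driven luciferase reporter stressed by proteasome inhibitor MG132; luminescence from HSF1-driven luciferase expression after 8 hours of MG132 stress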
T4 sequence (P38532 whole entry): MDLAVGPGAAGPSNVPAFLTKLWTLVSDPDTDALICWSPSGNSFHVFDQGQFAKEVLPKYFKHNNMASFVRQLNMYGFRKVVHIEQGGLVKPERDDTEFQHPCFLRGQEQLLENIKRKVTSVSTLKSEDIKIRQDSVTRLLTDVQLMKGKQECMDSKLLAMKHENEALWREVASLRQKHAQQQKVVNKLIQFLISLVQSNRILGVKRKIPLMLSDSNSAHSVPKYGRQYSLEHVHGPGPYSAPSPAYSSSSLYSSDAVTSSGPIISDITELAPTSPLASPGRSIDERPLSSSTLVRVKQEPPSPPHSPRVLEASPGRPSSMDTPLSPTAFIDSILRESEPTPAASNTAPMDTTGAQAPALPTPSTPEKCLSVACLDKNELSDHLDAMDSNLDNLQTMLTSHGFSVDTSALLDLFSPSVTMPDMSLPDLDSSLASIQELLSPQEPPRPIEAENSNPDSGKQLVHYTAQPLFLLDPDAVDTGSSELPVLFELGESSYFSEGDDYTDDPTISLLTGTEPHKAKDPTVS

[5] = target: Type-1 angiotensin II receptor (Homo sapiens, UniProt P30556); experiment: antagonism of angiotensin II type 1 receptor – cell-based, uHTS hits, selectivity assay for APJ receptor antagonist project, dose response (AID 463214); assay type: functional;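 also: antagonist potency against angiotensin II stimulated AT1 response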
[6] = THP-1 cell cytotoxicity, dose response, cytotoxicity control for non-replicating M. tuberculosis project (AID 489025); assay type: functional
[7] = HepG2 cell cytotoxicity, dose response, cytotoxicity control for non-replicating M. tuberculosis project (AID 489018); assay type: functional; details: Mycobacterium tuberculosis
[8] = Vero E6 cell cytotoxicity, dose response, cytotoxicity control for non-replicating M. tuberculosis project, secondary assay (AID 492998); assay type: functional, VeroE6; details: Vero C1008
cells = assay type: functional
CHO = CHO cell viability loss, potency – luminescence, cytotoxicity control for TLR9-MyD88 binding inhibitor project, dose response (AID 588339); assay type: functional, cell-based, hamster; details: Cricetulus griseus;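 also: CHO cells stably coexpressing TLR9 and MyD88 fusions from primary screen; compound exposure lasted 48 hours before viability readout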
[9] = target: Heat shock protein HSP 90-alpha (Homo sapiens, UniProt P07900); assay type: functional, organism-based
Beta Lactamase = Beta Lactamase (Pseudomonas aeruginosa, UniProt Q932Y6); experiment: BLA reporter interference, concentration series – BLA reporter cells, FRET fluorescence, artefact control for TLR9-MyD88 binding inhibitor project, dose response (AID 588341); assay type: cell-based;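 also: cell based assay in CHO-K1 cells stably expressing beta-lactamase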
INS1 = experiment: INS-1E survival protection against cytokine death – cell-based, luminescence, retest, dose response (AID 449756); assay type: functional; details: Rattus norvegicus;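 also: cell death triggered by IL-1 beta plus TNF-alpha plus IFN-gamma mixture; protective hits raise ATP signal compared with cytokine alone wells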
[10] = Fluorescence-based cell-based high throughput dose response assay for inhibitors of the interaction of nucleotide-binding oligomerization domain containing 2 (NOD2) and the receptor-interacting serine-threonine kinase 2 (RIPK2).; assay type: functional; details: Homo sapiens
Paired box protein Pax-8 = Paired box protein Pax-8 (Homo sapiens, UniProt Q06710); experiment: PAX8 transcriptional activity inhibition in RMG-I – RMG-I cells, luciferase, cherry-pick, dose response (AID 687027); assay type: functional, cell-based;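 also: luciferase reporter driven by Pax8 target thyroperoxidase promoter measured by SteadyGlo luminescence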
[11] = general cell-killing toxicity readout – plate reader, dry powder samples, cytotoxicity control for PAX8 inhibitor project, dose response (AID 743021); assay type: functional, cell-based

Sequence of Genome polyprotein (P29990 2492-3391 limits assumed): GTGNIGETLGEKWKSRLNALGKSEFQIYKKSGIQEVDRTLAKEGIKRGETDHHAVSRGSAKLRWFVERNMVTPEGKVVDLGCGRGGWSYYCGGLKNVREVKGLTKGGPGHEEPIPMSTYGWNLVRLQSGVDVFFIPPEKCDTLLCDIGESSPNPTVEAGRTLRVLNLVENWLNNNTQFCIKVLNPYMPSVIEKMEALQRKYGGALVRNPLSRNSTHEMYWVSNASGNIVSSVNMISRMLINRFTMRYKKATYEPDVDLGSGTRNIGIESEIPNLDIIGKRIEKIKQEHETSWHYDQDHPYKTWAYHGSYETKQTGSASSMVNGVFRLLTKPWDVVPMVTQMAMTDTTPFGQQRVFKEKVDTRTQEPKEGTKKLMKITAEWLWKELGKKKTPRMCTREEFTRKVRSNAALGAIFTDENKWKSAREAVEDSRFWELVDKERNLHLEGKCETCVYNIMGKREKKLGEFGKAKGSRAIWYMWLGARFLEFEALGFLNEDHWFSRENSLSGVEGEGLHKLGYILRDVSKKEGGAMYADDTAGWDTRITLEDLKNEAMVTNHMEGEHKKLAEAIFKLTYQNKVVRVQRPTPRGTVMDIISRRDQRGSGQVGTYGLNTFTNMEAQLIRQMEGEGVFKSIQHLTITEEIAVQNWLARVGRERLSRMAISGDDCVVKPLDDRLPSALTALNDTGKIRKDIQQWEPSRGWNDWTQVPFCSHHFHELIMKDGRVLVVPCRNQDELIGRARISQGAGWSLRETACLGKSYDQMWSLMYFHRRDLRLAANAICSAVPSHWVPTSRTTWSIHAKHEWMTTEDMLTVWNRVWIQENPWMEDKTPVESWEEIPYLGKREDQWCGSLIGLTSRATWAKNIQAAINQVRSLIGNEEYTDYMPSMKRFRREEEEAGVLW
Sequence of Type-1 angiotensin II receptor (P30556 whole entry): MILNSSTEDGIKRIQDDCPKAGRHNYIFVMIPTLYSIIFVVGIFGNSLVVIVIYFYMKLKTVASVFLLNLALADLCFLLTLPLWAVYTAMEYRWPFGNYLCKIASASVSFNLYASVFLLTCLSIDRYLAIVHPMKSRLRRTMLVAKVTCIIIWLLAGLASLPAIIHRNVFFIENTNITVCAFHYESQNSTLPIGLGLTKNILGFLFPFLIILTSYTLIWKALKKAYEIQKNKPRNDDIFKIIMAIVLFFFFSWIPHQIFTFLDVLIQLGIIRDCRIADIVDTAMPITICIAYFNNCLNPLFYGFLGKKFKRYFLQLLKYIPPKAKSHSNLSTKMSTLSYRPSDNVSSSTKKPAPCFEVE
Sequence of Beta Lactamase (Q932Y6 whole entry): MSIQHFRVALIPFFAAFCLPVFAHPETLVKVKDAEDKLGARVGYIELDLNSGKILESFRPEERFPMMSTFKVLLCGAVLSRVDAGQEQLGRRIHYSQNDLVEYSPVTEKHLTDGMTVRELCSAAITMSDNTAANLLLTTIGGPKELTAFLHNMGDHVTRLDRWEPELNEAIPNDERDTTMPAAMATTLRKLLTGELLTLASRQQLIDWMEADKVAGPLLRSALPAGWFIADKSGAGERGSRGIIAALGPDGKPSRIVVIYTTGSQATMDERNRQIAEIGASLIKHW
Sequence of Latent membrane protein 1 (P03230 whole entry): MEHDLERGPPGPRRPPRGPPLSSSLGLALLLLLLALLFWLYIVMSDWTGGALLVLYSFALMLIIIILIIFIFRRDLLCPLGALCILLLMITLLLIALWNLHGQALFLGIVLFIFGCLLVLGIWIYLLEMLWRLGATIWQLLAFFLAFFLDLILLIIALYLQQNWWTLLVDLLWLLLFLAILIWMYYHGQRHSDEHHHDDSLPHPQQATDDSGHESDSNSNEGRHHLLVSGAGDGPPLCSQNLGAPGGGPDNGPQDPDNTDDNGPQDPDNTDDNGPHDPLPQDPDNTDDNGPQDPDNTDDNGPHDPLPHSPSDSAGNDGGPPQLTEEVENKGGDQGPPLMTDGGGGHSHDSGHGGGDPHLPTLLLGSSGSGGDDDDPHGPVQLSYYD
Sequence of Paired box protein Pax-8 (Q06710 whole entry): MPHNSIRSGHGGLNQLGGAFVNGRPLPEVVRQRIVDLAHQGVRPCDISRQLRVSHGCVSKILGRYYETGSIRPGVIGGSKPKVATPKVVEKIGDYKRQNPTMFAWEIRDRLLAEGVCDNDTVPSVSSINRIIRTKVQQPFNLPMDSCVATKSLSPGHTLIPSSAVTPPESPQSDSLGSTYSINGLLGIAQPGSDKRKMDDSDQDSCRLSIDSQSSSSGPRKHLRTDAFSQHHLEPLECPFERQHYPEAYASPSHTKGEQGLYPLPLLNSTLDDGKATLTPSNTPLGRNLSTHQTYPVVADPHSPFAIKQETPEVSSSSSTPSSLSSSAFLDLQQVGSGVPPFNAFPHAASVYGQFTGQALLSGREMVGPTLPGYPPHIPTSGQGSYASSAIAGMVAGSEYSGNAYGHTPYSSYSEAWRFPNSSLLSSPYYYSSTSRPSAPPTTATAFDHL
Sequence of Beta-galactosidase (Q8VNN2 whole entry): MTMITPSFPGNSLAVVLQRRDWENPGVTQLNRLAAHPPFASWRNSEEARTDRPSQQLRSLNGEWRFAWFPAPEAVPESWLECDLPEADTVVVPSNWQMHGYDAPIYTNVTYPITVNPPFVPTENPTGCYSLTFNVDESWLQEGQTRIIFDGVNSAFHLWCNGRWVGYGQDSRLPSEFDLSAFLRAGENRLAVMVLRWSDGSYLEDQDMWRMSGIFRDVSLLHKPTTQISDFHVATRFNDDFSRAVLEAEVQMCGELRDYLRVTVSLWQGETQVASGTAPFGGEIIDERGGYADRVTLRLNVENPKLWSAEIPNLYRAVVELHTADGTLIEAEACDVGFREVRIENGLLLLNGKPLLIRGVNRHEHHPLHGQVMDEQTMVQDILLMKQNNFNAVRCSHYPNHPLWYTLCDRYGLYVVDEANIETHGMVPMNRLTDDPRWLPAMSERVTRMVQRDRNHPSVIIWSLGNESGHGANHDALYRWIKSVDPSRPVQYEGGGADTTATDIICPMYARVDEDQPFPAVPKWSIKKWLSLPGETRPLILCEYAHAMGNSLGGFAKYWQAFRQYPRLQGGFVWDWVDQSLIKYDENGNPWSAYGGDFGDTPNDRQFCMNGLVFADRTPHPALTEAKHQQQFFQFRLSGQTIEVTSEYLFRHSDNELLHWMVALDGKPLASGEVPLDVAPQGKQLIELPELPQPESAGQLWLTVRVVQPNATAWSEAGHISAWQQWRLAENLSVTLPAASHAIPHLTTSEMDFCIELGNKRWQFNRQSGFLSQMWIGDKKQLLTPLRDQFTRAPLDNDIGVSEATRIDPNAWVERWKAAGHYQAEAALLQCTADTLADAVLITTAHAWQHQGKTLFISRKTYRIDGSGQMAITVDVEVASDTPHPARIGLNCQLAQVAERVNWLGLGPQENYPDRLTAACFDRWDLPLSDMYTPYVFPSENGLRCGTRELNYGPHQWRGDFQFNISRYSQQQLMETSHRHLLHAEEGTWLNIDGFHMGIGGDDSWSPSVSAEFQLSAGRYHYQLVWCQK

CCc1ccc(/C=C/C(=O)C2C(=O)c3ccccc3C2=O)cc1
AC50 (HEK293): 4.59 µM (active)
AC50 [1]: 51.1 µM (active)
CC50 (Vero): 34.7 µM (active)
AC50 [2]: 27.4 µM (active)
EC50 (Protein RecA): 22.7 µM (active)
IC50 (Genome polyprotein): 62.8 µM (active)
AC50 [3]: 80.4 µM (active)

O=C(C#Cc1ccccc1)c1ccco1
EC50 (Beta-galactosidase): > 40 µM (inactive)
EC50 [4]: 6.57 µM (active)
IC50 [5]: 8.43 µM (active)
CC50 [6]: 11 µM (active)
CC50 [7]: 9.8 µM (active)
CC50 [8]: 7.89 µM (active)
IC50 (cells): 1.32 µM (active)
IC50 (CHO): 1.82 µM (active)
AC50 [9]: 3.05 µM (active)
IC50 (Beta Lactamase): > 49.8 µM (inactive)
AC50 (INS1): 6.11 µM (active)
IC50 [10]: 2.25 µM (active)
AC50 (Paired box protein Pax-8): 9.61 µM (active)
AC50 [11]: 23.7 µM (active)
